Test results as given in patent EP4707279A1, “SUBSTITUTED TRICYCLIC HETEROCYCLIC COMPOUND AS PHARMACEUTICAL FOR TREATMENT OR PREVENTION OF COVID-19” (priority 2023, dated 2024).

System: SARS-CoV-2
Test: CPE inhibition assay, anti-SARS-CoV-2 virus activity in vitro (Test Example 4)
Assay type: cell-based
Conditions: for Anti SARS-CoV-2 activity: CPE inhibition at 10 µM, VeroE6-TMPRSS2 cells, MOI 0.01, third day post infection, average of three tests; for inhibition at 10 µM: Severe acute respiratory syndrome coronavirus 2, VeroE6/TMPRSS2, 72 h, read-out: Anti SARS-CoV-2 activity

Molecule: Ethyl (6R.9S.11aR.11b R) 6 benzyl 11b-hydroxy 2,4,7 trioxo-1.3 bis(thiophen 2 ylm ethyl)decahydro-2H-pyrrolo[2',1':3,4] pyridazine[1,2-a] [1,3,5]triazine 9 carboxylate [Compound 18A]
- Anti SARS-CoV-2 activity: A (a CPE inhibition effect of 5% or more)

Molecule: Ethyl (6R,9S,11aR,11bR)-1,3-dibenzyl-11b-hydroxy-6-(4-methoxybenzyl)-2,4.7-trioxodecahydro-2H-pyrrolo [2',1':3,4]pyrazino[1,2-a][1,3,5] triazine-9-carboxylate [Compound 6A]
- Anti SARS-CoV-2 activity: C (less than 1%)

Molecule: Ethyl (6R)-1,3,6-tribenzyl-11b-hydroxy-2,4,7-trioxodecahydro-2H-pyrrolo[2',1':3,4] pyridazino[1,2-a] [1,3,5]triazine-9-carboxylate [Compound 22A]
- Anti SARS-CoV-2 activity: B (a CPE inhibition effect of less than 5% but 1% or more)

Molecule: (6R.9S)-1.3-benzyl-6-(4-fluorobenzyl)-N-(naphthalen-2-ylmethyl)-2, 4,7-trioxo-1,3,4,6,7,9,10,11-octahydro-2H-pyrrolo [2',1':3,4]pyridazine [1,2-a][1,3,5]triazine-9-carboxamide [Compound 5E]
- Anti SARS-CoV-2 activity: C (less than 1%)

Molecule: O=C1C(Cc2ccccc2)N2C(=O)N(Cc3ccccc3)C(=O)N(Cc3ccccc3)C2=C2C[C@@H](OCc3ccccc3)CN12 (stereo partly drawn) [Compound 15B, (6R,10R)-1,3,6-tribenzyl-10-(benzyloxy)-1,9,10,11-tetrahydro-2H-pyrrolo[2',1':3,4] pyridazino[1,2-a][1,3,5] triazine-2,4,7(3H,6H)-trione]
- inhibition at 10 µM: < 1%

Molecule: (6R.9S.11aR.11bR)-1,3-Dibenzyl-6-(4-fluorobenzyl)-11b-hydroxy-N-(naphthalen-2-yl methyl)-2,4,7-trioxodecahydro-2H-pyrrolo[2',1':3,4]pyridazine [1,2-a][1,3,5]triazine-9-carboxamide [Compound 5D]
- Anti SARS-CoV-2 activity: A (a CPE inhibition effect of 5% or more)

Molecule: CCOC(=O)[C@@H]1CCC2=C3N(Cc4ccccc4)C(=O)N(Cc4ccccc4)C(=O)N3[C@H](C(C)C)C(=O)N21 [Compound 3B, Ethyl (6R.9S) 1,3-dibenzyl 6 isopropyl-2.4.7 trioxo-1,3,4,6,7,9,10,11-octahydro 2H-pyrrolo[2',1':3.4]pyrazi no[1,2 a][1,3,5] triazine 9 carboxylate]
- inhibition at 10 µM: > 5%

Molecule: (6S,9R,11aS,11bS)-1,3,6-Tri benzyl-11b-hydroxy-2,4,7-tri oxodecahydro-2H-pyrrolo [2',1':3,4]pyridazine[1,2-a] [1,3,5]triazine-9-carboxylic acid [Compound 4C]
- Anti SARS-CoV-2 activity: C (less than 1%)

Molecule: CNC(=O)[C@@H]1CC[C@H]2N1C(=O)[C@@H](Cc1ccccc1)N1C(=O)N(Cc3cccs3)C(=O)N(Cc3cccs3)[C@]21O [Compound 18F, (6R,9S,11aR,11bR)-6-benzyl-11b-hydroxy-N-methyl-2,4,7-trioxo-1,3-bis(thiophen-2-ylmethyl)decahydro-2H-pyrrolo [2',1':3,4]pyrazino[1,2-a][1,3,5]triazine-9-carboxamide]
- inhibition at 10 µM: 1 to 5%

Molecule: (6S,9R,11aS,11bS)-1,3,6-Tribenzyl-11b-hydroxy-N-(naphthalen-2-ylmethyl)-2,4 ,7-trioxo-2H-pyrrolo [2',1':3,4]pyrazino [1,2-a][1,3,5]triazine-9-carboxamide [Compound 4D]
- Anti SARS-CoV-2 activity: A (a CPE inhibition effect of 5% or more)

Molecule: (6R,9S,11aR,11bR)-1,3-Dibenzyl-11b-hydroxy-6-isopropyl-N-(naphthalen-2-ylmethyl)-2,4,7-trioxodecahydro-2H-pyrrolo[ 2',1':3,4]pyrazino[1,2-a] [1,3,5]triazine^-9^-carbamide [Compound 3D]
- Anti SARS-CoV-2 activity: A (a CPE inhibition effect of 5% or more)

Molecule: O=C(NCc1ccc2ccccc2c1)[C@H]1CCCC2=C3N(Cc4ccccc4)C(=O)N(Cc4ccccc4)C(=O)N3[C@H](Cc3ccccc3)C(=O)N21 [Compound 25E, (6R,9R)-1,3,6-Tribenzyl-N-(naphthalen-2-ylmethyl)-2,4,7-trioxo-1,2,3,4,6,7,9,10,11,12-decahydropyrido[2',1':3,4] pyrazino[1,2-a][1,3,5]triazine-9-carboxamide]
- inhibition at 10 µM: 1 to 5%

Molecule: (6R.11aR)-1,3,6-tribenzyl-11b-hydroxy-11a-methylhexahydro-2H-pyrrolo[2',1':3,4] pyrazino[1,2-a][1,3,5] triazine-2,4,7(3H,6H)-trione [Compound 19A]
- Anti SARS-CoV-2 activity: A (a CPE inhibition effect of 5% or more)

Molecule: (6S,9R,11aS,11bS)-1,3-Dibenzyl-11b-hydroxy-6-isopropyl-N-(naphthalen-2^-ylmethyl)-2,4,7-trioxodecahydro-2H-pyrrolo[2',1':3,4]pyrazino[ 1,2-a][1,3,5]triazine-9-carboxamide [Compound 26D]
- Anti SARS-CoV-2 activity: A (a CPE inhibition effect of 5% or more)

Molecule: O=C(NCc1ccc2ccccc2c1)[C@H]1CCC2=C3N(Cc4ccccc4)C(=O)N(Cc4ccccc4)C(=O)N3[C@@H](Cc3ccccc3)C(=O)N21 [Compound 4E, (6S,9R)-1,3,6-Tribenzyl-N-(naphthalen-2-ylmethyl)-2,4,7-trioxo-1,3,4,6,7,9,10,1 1-octahydro-2H-pyrrolo [2',1':3,4]pyrazino[1,2-a] [1,3,5]triazine-9-carboxamide]
- inhibition at 10 µM: 1 to 5%

Molecule: (6R,9S,11aR,11bR)-1,3-Dibenzyl-9-(4-fluoroisoindolin-2-carbonyl)-11b-hydroxy-6-isopropylhexahydro -2H-pyrrolo[2',1':3,4]pyri dazino[1,2-a][1,3,5] triazine-2.4. 7(3H.6H)-trione [Compound 3J]
- Anti SARS-CoV-2 activity: A (a CPE inhibition effect of 5% or more)

Molecule: O=C(NCc1ccc2ccccc2c1)[C@@H]1CCC2=C3N(Cc4ccccc4)C(=O)N(Cc4ccccc4)C(=O)N3[C@H](CC3CCCC3)C(=O)N21 [Compound 8E, (6R,9S)-1,3-Dibenzyl-6-(cyclopentylmethyl)-N-(naphthalen-2-ylmethyl)-2,4,7-trioxo-1,3,4,6,7,9,10,11-octahydro-2H-pyrrolo [2',1':3,4]pyrazino[1,2-a] [1,3,5]triazine-9-carboxamide]
- inhibition at 10 µM: < 1%

Molecule: Ethyl (6R,9S,11aR,11bR)-1.3 dibenzyl 11b-hydroxy 6 isobutyl-2.4.7 trioxodecahydro-2H pyrrolo[2',1':3,4] pyrazino[1.2 a][1.3.5] triazine 9 carboxylate [Compound 30A]
- Anti SARS-CoV-2 activity: A (a CPE inhibition effect of 5% or more)

Molecule: (6R,10R,11aR)-1.3,6-tribenzyl-10-(benzyl oxy)-11b-hydroxyhexahydro-2H-pyrrolo [2',1':3,4]pyrazino[1,2-a][1.3,5] triazine-2,4,7(3H.6H)-trione [Compound 15A]
- Anti SARS-CoV-2 activity: C (less than 1%)

Molecule: (6R,9S,11aR,11bR)-1,3-bis(furan-2-ylmethyl)-11b-hydroxy-6-isopropyl-N-(naphthalen-2-ylmethyl)-2,4,7-trioxodecahydro-2H-pyrrolo[2',1':3,4]pyridazin e[1,2-a] [1,3,5]triazine-9-carboxamide [Compound 28D]
- Anti SARS-CoV-2 activity: A (a CPE inhibition effect of 5% or more)

Molecule: CCN(C(=O)NCCCN(C)C)C(=O)[C@@H]1CC[C@H]2N1C(=O)[C@@H](Cc1ccccc1)N1C(=O)N(Cc3cccs3)C(=O)N(Cc3cccs3)C21O (stereo partly drawn) [Compound 18H, (6R,9S,11aR)-6-benzyl-N-((3-(dimethylamino)propyl)carbamoil)-N-ethyl-11b-Hydroxy-2,4,7-trioxo-1,3-bis(thiophen-2-ylmethyl)decahydro-2H-pyrrolo[2',1':3,4] pyrazino[1,2-a][1,3,5]triazine-9-carboxamide]
- Anti SARS-CoV-2 activity: A (a CPE inhibition effect of 5% or more)

Molecule: O=C1[C@@H](Cc2ccccc2)N2C(=O)N(Cc3ccccc3)C(=O)N(Cc3ccccc3)[C@]2(O)[C@H]2CC[C@@H](CNCc3ccc4ccccc4c3)N12 [Compound 1F, (6R,9S,11aR,11bR)-1,3,6-Tribenzyl-11b-hydroxy-9-(((naphthalen-2-ylmethyl)amino)methyl)hexahydro-2H-pyrrolo[2',1':3,4]pyridazine[1,2-a][1,3,5]triazine-2,4,7(3H,6H)-trione]
- Anti SARS-CoV-2 activity: C (less than 1%)

Molecule: Ethyl (6R,9S,11aR)-11b-hydroxy-6-isopropyl-2.4,7-trioxo-1,3-bis(thiophen-2-ylmethyl)decahydro-2H-pyrrolo[2',1':3,4] pyrazino[1,2-a][1,3,5] triazine-9-carboxylate [Compound 27A]
- Anti SARS-CoV-2 activity: A (a CPE inhibition effect of 5% or more)

Molecule: CCOC(=O)[C@@H]1CC[C@H]2N1C(=O)[C@@H](C(C)C)N1C(=O)N(Cc3ccco3)C(=O)N(Cc3ccco3)[C@]21O [Compound 28A, Ethyl (6R,9S,11aR,11bR)-1,3-bis(furan-2-ylmethyl)-11b-hydroxy-6-isopropyl-2,4,7-trioxodecahydro-2H-pyrrolo[2',1':3,4] pyrazino[1,2-a][1,3,5] triazine-9-carboxylate]
- inhibition at 10 µM: > 5%

Molecule: CCOC(=O)[C@@H]1CCC2=C3N(Cc4ccccc4)C(=O)N(Cc4ccccc4)C(=O)N3[C@H](Cc3ccccc3)C(=O)N21 [Compound 1B, Ethyl (6R,9S)-1,3,6-tribenzyl-2,4,7-trioxo-1,3,4,6,7,9,10,11-octahydro-2H-pyrrolo[2',1':3,4]pyridazine[1,2-a][1,3,5]triazine-9-carboxylate]
- Anti SARS-CoV-2 activity: C (less than 1%)

Molecule: O=C(NCc1ccc2ccccc2c1)[C@@H]1CCC2=C3N(c4ccccc4)C(=O)N(c4ccccc4)C(=O)N3[C@H](Cc3ccccc3)C(=O)N21 [Compound 16E, (6R,9S)-6-Benzyl-N-(naphthalen-2-ylmethyl)-2,4,7-trioxo-1,3-diphenyl-1,3,4,6,7,9,10,11-octahydro-2H-pyrrolo [2',1':3,4]pyrazino[1,2-a][1,3,5]triazine-9-carboxamide]
- inhibition at 10 µM: 1 to 5%
